{"source": "patent US20040191842A1", "about": "“Chemopreventive and therapeutic aspects of polyphenolic compositions and assays” (Medical College of Georgia Research Institute, Inc., priority 2002, published 2004)", "key": {"p57 (KIP2)": {"test_system": "p57 (KIP2)", "assay": "Western blot of p57 in SCC25 oral carcinoma cells", "type": "cell-based, human", "details": "50 μM EGCG or 0.2 mg/ml GTPPs, 24 h", "protocol": "Cell treatments. For 24 hours treatments, exponentially growing cells with 40% confluency (to minimize differentiation and spontaneous apoptosis) were either maintained in 50 μM EGCG (2.29 mg/100 ml) or 0.2 mg/ml of GTPPs in tissue culture flasks (25 cm^2). Control flasks contained cells without any treatment. To test whether BaP or NNK interfere with the induction of p57, the human keratinocytes were treated with 0.12 μM BaP, or 10 μM NNK, either alone or in combination with 50 μM EGCG. To examine the time course of p57 induction, cells were treated with 50 μM EGCG and harvested for Western analysis at 30 minutes, 2 hours, 6 hours, and 24 hours. The human keratinocytes were treated when the cell density reached 85-90% confluency (to mimic the epithelium).\nWestern blot analysis. Cells from different treatment groups were lysed in RIPA buffer (1% NP-40, 1% sodium deoxycholate, 0.1% SDS, 0.15 M NaCl, 0.01 M sodium phosphate, pH 7.2, and 1% Trasylol) containing proteinase inhibitors (1 mM PMSF, 1 μg/ml each of aprotinin, leupeptin, and pepstatin). The concentration of protein in each sample was determined using the BioRad DC Protein Assay and spectrophotometry. Fifty micrograms (μg) of protein from each sample and a BioRad molecular weight standard marker were run on a 10% SDS-PAGE, followed by transfer to nitrocellulose membranes. […]"}, "NS-SV-AC cells": {"test_system": "NS-SV-AC cells", "assay": "Mitochondrial SDH activity in immortalized salivary glandular cells", "type": "cell-based, human", "details": "NS-SV-AC and two other immortalized salivary glandular cell lines", "protocol": "MTT [3-(4,5-dimethylthiazol-2-yl)-2,5-diphenyl tetrazolium bromide] assay. […] Cells (1.5×10^4 cells/well) were seeded in a 96-well microplate and treated with the indicated doses of EGCG for 24 hours. After the treatment, the cells in each well were washed with 200 μl of phosphate-buffered saline (PBS), incubated with 100 μl of 2% MTT in a solution of 0.05 M Tris, 0.5 mM MgCl2, 2.5 mM CoCl2, and 0.25 M disodiumn succinate as substrate (Sigma) at 37° C. for 30 minutes. Cells were fixed in situ by the addition of 100 μl of 4% formalin in 0.2 M Tris (pH 7.7), and after a 5 minute incubation at room temperature liquid was removed and the wells were allowed to dry. Each well was rinsed with 200 μl water and cells were solubilized by the addition of 100 μl of 6.35% 0.1 N NaOH in DMSO. The colored formazan product was measured by a Thermo MAX micro plate reader (Molecular Devices Corp., Sunnyvale, Calif.) at a wavelength of 562 nm. Experiments were repeated three times with triplicate samples for each experiment."}, "[1]": {"test_system": "normal human primary epidermal keratinocytes", "assay": "Immunocytochemistry of differentiation markers in keratinocytes", "type": "cell-based", "details": "50-100 μM EGCG, 24 hours", "description": "Immunocytochemistry. Normal human keratinocytes were seeded in 8-well chamber slides (Nagle Nunc International, Naperville, Ill.) 12 hours prior to EGCG treatment. At the end of a 24-hour treatment, the slides were washed with PBS and fixed in a cold 4% paraformaldehyde solution for 10 minutes. […] The primary antibodies, rabbit-anti-human p57 polyclonal antibody C-19, rabbit anti-human keratin 1, and filaggrin antibodies were applied for 1 hour at 37° C. at the dilutions recommended by the manufacturers. The streptavidin detection technique (Biogenex, USA) was used with 3-amino-9-ethylcarbazole as chromogen. Negative control sections consisted of tissues treated with 1% diluted normal goat serum instead of primary antibody. Mayer's hematoxylin was used as a counter-stain."}, "MCF7 cells": {"test_system": "MCF7 cells", "assay": "Cell growth assay, MCF7 cells", "type": "cell-based, human", "details": "50 μM EGCG, 96 hours", "description": "Cell growth assay. MCF7 cells were seeded (5×10^4) in 25 cm^2 tissue culture flask for 24 hours prior to EGCG or GTPPs incubation. Cells from each flask were trypsinized and counted at each time point on a hemacytometer."}, "OSC-GFP cells and NHEK": {"test_system": "OSC-GFP cells and NHEK", "assay": "Co-culture of OSC-GFP cells and NHEK, double fluorescence", "type": "cell-based, human", "details": "overlay co-culture, 100 μM EGCG, 24 hour", "description": "Co-culture and GTPP treatment. Various patterns of co-culture of the tumor/normal cells were achieved by different designs. Examples include:\n1. Adjacent co-culture design. OSC-GFP cells (5×10^4) were seeded in the center of a culturing device (8-well chamber-slide, Nagle Nunc International, Naperville, Ill.) through a cloning cylinder (Fisher Scientific/Scienceware, Tapered Design, 4.7×8 mm) in DMEM/F12 medium and allowed to attach for 24 hours. NHEK (10^5) in KGM-2 were then seeded in the area next to the cylinder. After 24 hours, the cylinder was removed and the medium was replaced by a 50/50 mix of KGM-2 and DMEM/F12 and the cells were allowed to grow for another 24 hours prior to treatment (FIG. 21, right).\n2. Overlay design, which could be adapted for high throughput screening in 96 well plate. […]\n4. Tumor cell migration was monitored by co-culturing OSC-GFP and NHEK in wells of a 24 well plate as indicated in “1”, except the NHEK cell number was doubled. After treatment, tumor cell migration into NHEK territory was recorded by fluorescent microscopy at selected time points. […]\nImmunofluorescence and photography. […] Fluorescence was generated by a ZEISS AttoArc 2 source. […]\nThe total fluorescence intensities of images were quantified using the BIOQUANT NOVA PRIME 6.0 software (Bioquant Co., Nashville, Tenn.). […]"}, "Apaf-1": {"test_system": "Apaf-1", "assay": "Western blot of Apaf-1 in epidermal keratinocytes", "type": "cell-based, human", "details": "increasing concentrations of EGCG", "description": "Western blot analysis. The keratinocytes and the mammary epithelial cells were placed in KGM-2 and MEGM, respectively, overnight prior to treatment. Cells were lysed, after 24-hour treatment, in RIPA buffer (1% NP-40, 1% sodium deoxycholate, 0.1% SDS, 0.15 M NaCl, 0.01 M sodium phosphate, pH 7.2, and 1% Trasylol) containing proteinase inhibitors (1 mM PMSF, 1 μg/ml each of aprotinin, leupeptin, and pepstatin). The concentration of protein in each sample was determined using the BioRad DC Protein Assay and spectrophotometry. 50 μg of protein from each sample and a BioRad molecular weight standard marker were run on a 10% SDS-PAGE, followed by transfer to nitrocellulose membranes. Nonspecific binding to the membranes was blocked with 10% nonfat milk. Primary polyclonal (rabbit) antibodies and a horseradish peroxidase-conjugated goat anti-rabbit secondary antibody were used in conjunction with the ECL Chemiluminescence Kit (Amersham Pharmacia Biotech, New Jersey) and membranes were exposed to radiographic films for detection. Western blots were digitized for comparison of the intensity for each band using the ImageTool image analysis software program (University of Texas Health Science Center, San Antonio, Tex.). The integrated density of each band was measured using identical 1480 pixel areas of each Apfa-1 or Actin band at a scale of densities from 0 to 255. […]"}, "OSC-2 cells": {"test_system": "OSC-2 cells", "assay": "MTT assay (mitochondrial SDH activity), OSC2 (OSC-2) cells", "details": "increasing EGCG and 0.2 mg/ml GTPPs, 24 hour", "protocol": "This method detects the activity of mitochondrial succinate dehydrogenase (SDH). In a 96-well plate, 1.5×10^4 cells were seeded in each well. After variety of treatments, 100 μl of 2% MTT was added to each well and the plate was incubated at 37° C. for 30 minutes. 100 μl of 0.2 M Tris (pH 7.7) with 4% formalin was added to each well. After incubation at room temperature for 5 minutes, liquid was removed and the wells were allowed to dry. Each well was rinsed with 200 μl water followed by addition of 100 μl DMSO (6.35% 0.1 N NaOH in DMSO) to each well. The coloration was measured by a Thermo MAX microplate reader (Molecular Devices Corp. Sunnyvale, Calif. using wavelengths of 562 nm. Experiments were repeated three times with triplicate samples for each experiment.\nThis method directly detects the activity of mitochondrial succinate dehydrogenase (SDH). Changes in SDH activity is a measurement of cell viability when stress is introduced in cell culture through chemical or physical means. Cells (1.5×10^4 cells/well) were seeded in a 96-well microplate and treated with the indicated doses of EGCG for 24 hours. After the treatment, the cells in each well were washed with 200 μl of phosphate-buffered saline (PBS), incubated with 100 μl of 2% MTT in a solution of 0.05 M Tris, 0.5 mM MgCl2, 2.5 mM CoCl2, and 0.25 M disodiumn succinate as substrate (Sigma) at 37° C. for 30 minutes. Cells were fixed in situ by the addition of 100 μl of 4% formalin in 0.2 M Tris (pH 7.7), and after a 5 minute incubation at room temperature liquid was removed and the wells were allowed to dry. Each well was rinsed with 200 μl water and cells were solubilized by the addition of 100 μl of 6.35% 0.1 N NaOH in DMSO. The colored formazan product was measured by a Thermo MAX micro plate reader (Molecular Devices Corp., Sunnyvale, Calif.) at a wavelength of 562 nm. […]\nThis method directly detects the activity of mitochondrial succinate dehydrogenase (SDH). […] Solubilized colored formazan product was measured using a Thermo MAX microplate reader (Molecular Devices Corp., Sunnyvale, Calif.) at a wavelength of 562 nm."}}, "data": [{"compound": "O=C(O[C@@H]1Cc2c(O)cc(O)cc2O[C@@H]1c1cc(O)c(O)c(O)c1)c1cc(O)c(O)c(O)c1", "note": "[EGCG, (−)-epigallocatechin-3-gallate]", "values": [{"measurement": "p57 levels", "setting": "p57 (KIP2)", "result": "remained unchanged"}, {"measurement": "tolerance, mitochondrial SDH activity", "setting": "NS-SV-AC cells", "result": "tolerant to high concentrations of EGCG"}, {"measurement": "differentiation (p57/KIP2, keratin 1, filaggrin)", "setting": "[1]", "result": "underwent differentiation in 24 hours"}, {"measurement": "cell number compared to untreated cultures", "setting": "MCF7 cells", "result": "only an insignificant decrease in cell number"}, {"measurement": "ratio of fluorescence intensities of rhodamine (red)/FITC (green)", "setting": "OSC-GFP cells and NHEK", "result": 1.23}, {"measurement": "Apaf-1 levels", "setting": "Apaf-1", "result": "stable basal levels of Apaf-1"}, {"measurement": "SDH activities", "setting": "OSC-2 cells", "result": "decreased"}]}]}
